How the values were obtained:
BR or C2 cells = assay: Proliferation of BR or C2 cells (cell lines not separated); assay type: cell-based, canine
Description: (§1) Cell lines: BR and C2 canine mastocytoma cells lines were obtained from Dr. George Caughey (University of California at San Francisco, San Francisco, Calif.). Both cell lines were maintained in DMEM supplemented with 2% bovine calf, 1 mM L-glutamine, 12.5 mM HEPES (pH 7.5), 0.25 mg/mL Histidine, 1% Penicillin-Streptomycin and 1% fungizone. The BR and C2 cells were derived from canine mast cell tumors and were originally established in long-term culture after initial passaging in immunodeficient mice (DeVinney et al., Am. J. Respir. Cell Mol. Biol., Vol. 3, No. 5, pp. 413-420 (1990); Lazarus et al., Am. J. Physiol., Vol. 251, No. 6, Pt 1, pp. C935-C944 (1986)). The BR cell line has a point mutation (T1752C) resulting in a Leucine to Proline substitution at amino acid 575 (juxtamembrane domain). The C2 cell line has an internal tandem duplication (ITD) of the KIT juxtamembrane region.

[1] = tested on: constitutively activated mutant canine KIT (BR and C2 cells); assay: KIT autophosphorylation in BR and C2 cell lysates (anti-P-Tyr Western immunoblot); assay type: cell-based
Excerpt: Antibodies: A polyclonal rabbit anti-KIT antibody (c-kit Ab-1) was used at a dilution of 1:500 (c-kit Ab-1; Oncogene, Cambridge, Mass.). An anti-phosphotyrosine antibody (PY20) was used at a dilution of 1:1000 (PY20 Transduction Laboratories; Lexington, Ky.). Peroxidase conjugated goat anti-mouse antibody was used at a dilution of 1:5000 and goat anti-rabbit antibody at a dilution of 1:10,000 (Pierce; Rockford, Ill.).
as §1
Protein lysates: BR and C2 cells were washed ×2 in PBS and then quiesced in Optimem (Gibco-BRL) at 37° C. for approximately 18 hours.
Dermatol., Vol.114, No. 2, pp. 392-394 (2000)).

[2] = tested on: cutaneous mast cell tumors; assay: Prospective case series of pet dogs with measurable cutaneous mast cell tumors; assay type: in vivo, dog; conditions: 25 mg/kg PO QD x 60 days of SALT I
Description: The study patients are pet dogs with measurable and histologically-confirmed mast cell tumors. Cases are limited to those with measurable lesions amenable to biopsy.
Pretreatment evaluation of all cases include physical examination, complete blood count, buffy coat, serum biochemistry, urinalysis, serum bile acids (fasting and post-prandial), documentation of regional lymph node size, abdominal radiographs and abdominal ultrasound. The treatment regimen is 25 mg/kg PO QD×60 days of SALT I.
Treatment is continued in all cases for 60 days unless disease progression is noted. In cases experiencing partial response or complete response ongoing therapy for an additional 60 days may be considered. Cases successfully completing therapy are eligible for repeat entry to study.
The efficacy of COMPOUND I is assessed against measurable cutaneous mast cell tumors, using clinical endpoints. Biological endpoints may be taken from serial biopsies collected from cutaneous tumors and from blood samples available through the treatment course.
Clinical endpoints include response rate of measurable tumors, objective response against measurable tumor, and time to progression of measurable tumor. All adverse side effects will be recorded.
Furthermore, it may be observed that more animals obtaining treatment show Stable Disease (SD), while less treated animals show Progressive Disease (PD). […]

Cc1ccc(NC(=O)c2ccc(CN3CCN(C)CC3)cc2)cc1Nc1nccc(-c2cccnc2)n1 [COMPOUND I]
Inhibition of proliferation (BR or C2 cells; 0.001-0.01 μM, 48-72 hours): Partial inhibition
Morphologic observations of inhibitor treated cells (BR or C2 cells; data not shown): changes consistent with apoptosis
Inhibition of KIT autophosphorylation ([1]; 0.1 μM dose, BR or C2 cells): Near complete inhibition
Autophosphorylation of c-kit ([1]; 0.001-0.01 μM doses, BR or C2 cells): Limited autophosphorylation
Inhibition of KIT autophosphorylation ([1]; 10 and 1.0 μM doses, BR or C2 cells, 90 minutes incubation, no SLF): complete inhibition
Potency on mutated c-kit receptor compared with wild type c-kit receptor ([1]; BR and C2 cells against literature wild type value): more potent inhibitor of this mutated receptor than it is of the wild type c-kit receptor
Expression of c-kit protein (membrane reprobed with anti-c-kit antibody) ([1]; treated BR or C2 cells): no change in expression of c-kit protein
Objective Tumors Responses [2]: are observed
